Laboratory results reported in BindingDB's records for PubMed 1352553 (University of North Carolina, 1992).
Values joined by “and” are separate entries in the source; they are usually repeats but may differ in a detail not shown here. Equal entries are not always repeated.

How the values were obtained:
[1] = biological target: Adenosine kinase (Rattus norvegicus, UniProt Q64640)
[2] = biological target: 5-hydroxytryptamine receptor 2A (Rattus norvegicus, UniProt P14842)
[3] = biological target: Gamma-aminobutyric acid (GABA) B receptor 1 (Rattus norvegicus, UniProt Q6MFX8)
[4] = biological target: Alpha-1A adrenergic receptor (Rattus norvegicus, UniProt P43140)
[5] = biological target: 5'-nucleotidase (Rattus norvegicus, UniProt P21588)
[6] = biological target: Gamma-aminobutyric acid receptor subunit alpha-1 (Rattus norvegicus, UniProt P62813)
[7] = biological target: Adenylate cyclase type 3 (Rattus norvegicus, UniProt P21932)
[8] = biological target: Alpha-2C adrenergic receptor (Rattus norvegicus, UniProt P22086)
[9] = biological target: Natriuretic peptides A (Rattus norvegicus, UniProt P01161)
[10] = biological target: Angiotensinogen (Rattus norvegicus, UniProt P01015)
[11] = biological target: Arginine vasopressin-induced protein 1 (Rattus norvegicus, UniProt Q8VDA6)
[12] = biological target: Bombesin receptor subtype-3 (Rattus norvegicus, UniProt Q8K418)
[13] = biological target: Voltage-dependent L-type calcium channel subunit alpha-1C (Rattus norvegicus, UniProt P22002)
[14] = biological target: Chloride channel protein 1 (Rattus norvegicus, UniProt P35524)
[15] = biological target: Cholecystokinin receptor type A (Rattus norvegicus, UniProt P30551)
[16] = biological target: Pro-epidermal growth factor (Rattus norvegicus, UniProt P07522)
[17] = biological target: Glutamate receptor 3 (Rattus norvegicus, UniProt P19492)
[18] = biological target: Glutamate receptor ionotropic, kainate 1 (Rattus norvegicus, UniProt P22756)
[19] = biological target: Glutamate receptor ionotropic, NMDA 1 (Rattus norvegicus, UniProt P35439)
[20] = biological target: Glycine amidinotransferase, mitochondrial (Rattus norvegicus, UniProt P50442)
[21] = biological target: Phosphatidylinositol 3,4,5-trisphosphate 5-phosphatase 2 (Rattus norvegicus, UniProt Q9WVR3)
[22] = biological target: Interleukin-18 (Rattus norvegicus, UniProt P97636)
[23] = biological target: Beta-nerve growth factor (Rattus norvegicus, UniProt P25427)
[24] = biological target: Norepinephrine transporter (Rattus norvegicus, UniProt Q9JIA2)
[25] = biological target: Sigma non-opioid intracellular receptor 1 (Rattus norvegicus, UniProt Q9R0C9)
[26] = biological target: Potassium voltage-gated channel subfamily H member 8 (Rattus norvegicus, UniProt Q9QWS8)
[27] = biological target: Somatostatin (Rattus norvegicus, UniProt P60042)
[28] = biological target: Protachykinin-1 (Rattus norvegicus, UniProt P06767)
[29] = biological target: VIP peptides (Rattus norvegicus, UniProt P01283)
[30] = biological target: Beta-2 adrenergic receptor (Rattus norvegicus, UniProt P10608)

Alpha-2C adrenergic receptor, sequence (P22086 whole entry): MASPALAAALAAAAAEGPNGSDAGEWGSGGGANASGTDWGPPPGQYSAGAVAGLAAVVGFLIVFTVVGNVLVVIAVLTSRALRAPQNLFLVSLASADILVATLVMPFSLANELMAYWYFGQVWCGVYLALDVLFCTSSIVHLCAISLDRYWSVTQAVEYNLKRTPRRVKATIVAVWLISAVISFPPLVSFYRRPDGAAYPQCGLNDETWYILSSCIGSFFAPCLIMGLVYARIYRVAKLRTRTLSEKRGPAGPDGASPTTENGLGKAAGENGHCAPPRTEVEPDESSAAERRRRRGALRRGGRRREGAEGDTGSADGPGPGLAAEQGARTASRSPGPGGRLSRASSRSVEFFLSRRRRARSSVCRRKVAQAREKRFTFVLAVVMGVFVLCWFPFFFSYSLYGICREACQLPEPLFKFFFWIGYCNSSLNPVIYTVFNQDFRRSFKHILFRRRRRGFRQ
Beta-nerve growth factor, sequence (P25427 122-241 limits assumed): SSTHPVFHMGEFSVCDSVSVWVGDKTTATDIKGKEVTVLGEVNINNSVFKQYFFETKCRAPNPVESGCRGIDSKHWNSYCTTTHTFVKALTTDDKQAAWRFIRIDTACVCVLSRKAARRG
Glutamate receptor 3, sequence (P19492 whole entry): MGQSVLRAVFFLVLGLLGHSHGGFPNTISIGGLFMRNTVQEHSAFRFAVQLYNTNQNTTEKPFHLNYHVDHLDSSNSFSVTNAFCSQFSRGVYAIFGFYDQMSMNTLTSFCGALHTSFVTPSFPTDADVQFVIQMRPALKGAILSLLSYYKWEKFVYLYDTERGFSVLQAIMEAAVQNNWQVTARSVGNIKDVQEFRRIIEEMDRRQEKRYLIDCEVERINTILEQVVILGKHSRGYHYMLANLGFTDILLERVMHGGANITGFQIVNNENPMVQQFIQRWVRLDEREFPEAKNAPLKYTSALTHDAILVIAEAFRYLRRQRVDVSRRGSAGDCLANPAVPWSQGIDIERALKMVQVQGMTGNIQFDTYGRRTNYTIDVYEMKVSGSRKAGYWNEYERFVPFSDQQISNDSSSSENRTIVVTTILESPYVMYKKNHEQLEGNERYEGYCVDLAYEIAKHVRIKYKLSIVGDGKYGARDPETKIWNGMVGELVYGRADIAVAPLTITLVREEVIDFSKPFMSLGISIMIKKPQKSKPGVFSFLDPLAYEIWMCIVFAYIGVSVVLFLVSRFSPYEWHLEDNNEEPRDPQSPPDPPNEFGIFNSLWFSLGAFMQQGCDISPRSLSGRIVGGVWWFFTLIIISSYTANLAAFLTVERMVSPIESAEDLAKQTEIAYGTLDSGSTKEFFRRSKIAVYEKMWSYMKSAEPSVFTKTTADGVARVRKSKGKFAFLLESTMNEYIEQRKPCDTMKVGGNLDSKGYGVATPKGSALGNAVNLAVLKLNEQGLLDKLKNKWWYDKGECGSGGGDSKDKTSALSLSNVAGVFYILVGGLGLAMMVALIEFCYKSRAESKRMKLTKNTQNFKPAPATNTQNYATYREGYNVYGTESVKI
Cholecystokinin receptor type A, sequence (P30551 whole entry): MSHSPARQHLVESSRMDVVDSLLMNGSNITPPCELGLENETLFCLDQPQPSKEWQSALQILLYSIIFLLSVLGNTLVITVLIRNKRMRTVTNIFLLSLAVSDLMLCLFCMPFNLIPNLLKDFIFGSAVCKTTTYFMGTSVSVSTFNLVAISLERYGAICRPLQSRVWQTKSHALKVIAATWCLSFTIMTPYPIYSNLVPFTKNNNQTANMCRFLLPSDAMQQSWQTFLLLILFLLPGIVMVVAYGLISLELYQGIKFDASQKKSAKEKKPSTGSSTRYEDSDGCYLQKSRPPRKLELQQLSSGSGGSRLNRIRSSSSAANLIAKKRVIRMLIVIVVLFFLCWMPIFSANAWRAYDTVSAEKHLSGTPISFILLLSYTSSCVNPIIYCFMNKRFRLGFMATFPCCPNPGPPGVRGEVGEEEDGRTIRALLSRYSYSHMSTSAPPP
Adenylate cyclase type 3, sequence (P21932 whole entry): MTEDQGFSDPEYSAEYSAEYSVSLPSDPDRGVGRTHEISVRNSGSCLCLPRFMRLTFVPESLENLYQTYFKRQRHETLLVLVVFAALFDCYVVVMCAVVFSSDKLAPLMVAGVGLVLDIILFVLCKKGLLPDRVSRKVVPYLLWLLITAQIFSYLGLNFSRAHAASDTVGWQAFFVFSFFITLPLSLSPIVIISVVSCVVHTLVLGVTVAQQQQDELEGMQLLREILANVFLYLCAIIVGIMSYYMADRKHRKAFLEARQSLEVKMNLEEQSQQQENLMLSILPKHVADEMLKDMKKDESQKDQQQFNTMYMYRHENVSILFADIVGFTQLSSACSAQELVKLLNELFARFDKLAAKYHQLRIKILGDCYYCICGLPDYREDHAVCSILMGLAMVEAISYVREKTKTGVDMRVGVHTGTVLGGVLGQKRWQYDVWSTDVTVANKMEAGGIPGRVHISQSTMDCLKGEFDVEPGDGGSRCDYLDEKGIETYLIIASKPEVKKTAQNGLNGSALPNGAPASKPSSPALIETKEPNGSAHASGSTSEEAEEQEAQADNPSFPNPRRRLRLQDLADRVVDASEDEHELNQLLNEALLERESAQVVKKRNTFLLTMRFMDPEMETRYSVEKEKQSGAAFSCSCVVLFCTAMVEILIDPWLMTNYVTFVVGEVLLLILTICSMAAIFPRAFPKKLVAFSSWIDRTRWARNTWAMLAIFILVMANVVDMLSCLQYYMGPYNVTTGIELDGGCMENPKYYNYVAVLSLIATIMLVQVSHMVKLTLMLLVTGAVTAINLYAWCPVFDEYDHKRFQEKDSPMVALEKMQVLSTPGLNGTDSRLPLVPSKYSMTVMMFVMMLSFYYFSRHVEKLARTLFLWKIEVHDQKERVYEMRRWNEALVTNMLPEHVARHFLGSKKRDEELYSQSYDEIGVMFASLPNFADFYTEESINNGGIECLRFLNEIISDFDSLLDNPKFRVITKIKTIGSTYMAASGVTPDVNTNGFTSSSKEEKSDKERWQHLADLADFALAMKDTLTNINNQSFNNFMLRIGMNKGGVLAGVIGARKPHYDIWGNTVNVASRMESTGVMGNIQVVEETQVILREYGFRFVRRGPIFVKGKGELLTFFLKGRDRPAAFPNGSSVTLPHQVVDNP
Natriuretic peptides A, sequence (P01161 whole entry): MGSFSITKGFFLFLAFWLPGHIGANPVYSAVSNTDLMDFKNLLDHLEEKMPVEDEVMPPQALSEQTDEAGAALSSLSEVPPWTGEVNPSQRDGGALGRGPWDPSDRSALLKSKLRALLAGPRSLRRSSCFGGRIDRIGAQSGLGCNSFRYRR
5-hydroxytryptamine receptor 2A, sequence (P14842 whole entry): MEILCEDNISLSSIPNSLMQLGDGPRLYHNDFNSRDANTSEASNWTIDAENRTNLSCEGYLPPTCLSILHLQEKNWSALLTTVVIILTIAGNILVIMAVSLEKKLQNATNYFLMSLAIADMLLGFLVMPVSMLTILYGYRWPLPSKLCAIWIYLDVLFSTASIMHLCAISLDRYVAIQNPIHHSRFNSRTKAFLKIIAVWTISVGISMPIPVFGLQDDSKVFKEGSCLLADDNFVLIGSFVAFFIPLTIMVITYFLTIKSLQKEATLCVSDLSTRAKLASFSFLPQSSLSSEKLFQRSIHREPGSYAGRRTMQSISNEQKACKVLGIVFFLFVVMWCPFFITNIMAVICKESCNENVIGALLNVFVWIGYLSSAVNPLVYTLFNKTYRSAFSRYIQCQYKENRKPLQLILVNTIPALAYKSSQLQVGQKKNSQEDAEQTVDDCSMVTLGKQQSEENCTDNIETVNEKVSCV
Phosphatidylinositol 3,4,5-trisphosphate 5-phosphatase 2, sequence (Q9WVR3 whole entry): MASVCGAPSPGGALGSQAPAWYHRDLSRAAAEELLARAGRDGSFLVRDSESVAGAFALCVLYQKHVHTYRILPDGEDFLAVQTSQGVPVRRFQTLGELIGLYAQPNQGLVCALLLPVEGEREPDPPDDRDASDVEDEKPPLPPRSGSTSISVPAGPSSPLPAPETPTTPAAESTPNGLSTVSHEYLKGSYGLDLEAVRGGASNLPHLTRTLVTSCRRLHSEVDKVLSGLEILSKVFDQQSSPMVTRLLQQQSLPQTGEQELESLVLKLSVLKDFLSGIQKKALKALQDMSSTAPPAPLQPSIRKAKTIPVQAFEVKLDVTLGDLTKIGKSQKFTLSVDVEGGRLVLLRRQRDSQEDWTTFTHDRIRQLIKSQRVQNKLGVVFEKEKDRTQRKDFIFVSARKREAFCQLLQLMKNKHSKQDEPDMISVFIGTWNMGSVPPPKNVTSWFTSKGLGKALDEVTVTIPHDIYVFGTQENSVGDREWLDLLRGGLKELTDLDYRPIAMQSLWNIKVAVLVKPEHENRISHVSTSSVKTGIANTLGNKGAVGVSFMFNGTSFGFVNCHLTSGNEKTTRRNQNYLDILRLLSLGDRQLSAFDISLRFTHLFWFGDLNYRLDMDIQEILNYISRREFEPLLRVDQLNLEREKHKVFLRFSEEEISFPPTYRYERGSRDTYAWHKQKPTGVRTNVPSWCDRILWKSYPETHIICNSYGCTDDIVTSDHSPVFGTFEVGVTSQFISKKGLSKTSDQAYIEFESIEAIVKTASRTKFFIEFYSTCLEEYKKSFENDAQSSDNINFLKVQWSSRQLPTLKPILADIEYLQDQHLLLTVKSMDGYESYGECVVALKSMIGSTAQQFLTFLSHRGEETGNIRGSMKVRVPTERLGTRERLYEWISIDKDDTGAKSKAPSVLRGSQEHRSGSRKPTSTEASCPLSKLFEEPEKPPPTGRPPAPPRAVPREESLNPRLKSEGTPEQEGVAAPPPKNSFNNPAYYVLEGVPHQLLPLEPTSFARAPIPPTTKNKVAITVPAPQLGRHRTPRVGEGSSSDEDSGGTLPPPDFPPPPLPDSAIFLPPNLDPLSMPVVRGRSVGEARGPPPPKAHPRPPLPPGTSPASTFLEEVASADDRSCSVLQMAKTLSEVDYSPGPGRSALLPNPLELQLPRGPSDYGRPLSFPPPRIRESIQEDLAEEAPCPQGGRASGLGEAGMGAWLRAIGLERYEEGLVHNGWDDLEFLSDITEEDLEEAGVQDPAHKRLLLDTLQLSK
VIP peptides, sequence (P01283 125-152 limits assumed): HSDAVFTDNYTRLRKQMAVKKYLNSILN

## Oc1cc2c(cc1O)[C@@H]1c3ccccc3CN[C@@H]1CC2 [(+/-)-trans-10,11-dihydroxy-5,6,6a,7,8,12b-hexahydrobenzo[a]phenanthridine]
[1]
  Ki: > 10 µM
[2]
  Ki: > 10 µM
[3]
  Ki: > 10 µM
[4]
  Ki: > 10 µM
[5]
  Ki: > 10 µM
[6]
  Ki: > 10 µM
[7]
  Ki: > 10 µM
[8]
  Ki: 0.23 µM and 1 µM
[9]
  Ki: > 10 µM
[10]
  Ki: > 10 µM
[11]
  Ki: > 10 µM
[12]
  Ki: > 10 µM
[13]
  Ki: > 10 µM
[14]
  Ki: > 10 µM
[15]
  Ki: > 10 µM
[16]
  Ki: > 10 µM
[17]
  Ki: > 10 µM
[18]
  Ki: > 10 µM
[19]
  Ki: > 10 µM
[20]
  Ki: > 10 µM
[21]
  Ki: > 10 µM
[22]
  Ki: > 10 µM
[23]
  Ki: > 10 µM
[24]
  Ki: > 10 µM
[25]
  Ki: > 10 µM
[26]
  Ki: > 10 µM
[27]
  Ki: > 10 µM
[28]
  Ki: > 10 µM
[29]
  Ki: > 10 µM
[30]
  Ki: > 10 µM
